Experiments:
[1] = test system: HIV-1JR-FL EnvΔCT expressed at the surface of HOS cells; test: Cell-based ELISA (CBE), 17b readout; details: MCG analogs 50 μM; BNM-III-170 5 μM; 2G12 and DMSO normalized
Description: Detection of trimeric HIV-1 Env at the surface of HOS cells was performed by cell-based ELISA, as described in Desormeaux, “The highly conserved layer-3 component of the HIV-1 gp120 inner domain is critical for CD4-required conformational transitions,” J. Virol. 87:2549-2562; Alsahafi, “Effects of the I559P gp41 change on the conformation and function of the human immunodeficiency virus (HIV-1) membrane envelope glycoprotein trimer,” 2015, PLoS One 10:e0122111; and Veillette, “Conformational evaluation of HIV-1 trimeric envelope glycoproteins using a cell-based ELISA assay,” 2014, J. Vis. Exp., 91:51995. To enhance cell-surface expression of HIV-1 EnvRF a stop codon was introduced to replace the codon for Gly 711, truncating the cytoplasmic tail (ACT). Briefly, HOS cells were seeded in T-75 flasks (3×10^6 cells per flask) and transfected the next day with 22.5 μg of Env-expressing plasmids (wild-type and mutants S375W, S375T, H66A, A582T/L587A, etc) using the standard polyethylenimine (PEI, Polyscience Inc, PA, USA) transfection method. Twenty-four hours after transfection, cells were plated in 384-wells plates (2×10^4 cells per well). One day later, cells were washed twice with blocking buffer (10 mg/mL non-fat dry milk, 1.8 mM CaCl2), 1 mM MgCl2, 25 mM Tris, pH 7.5 and 140 mM NaCl) and then incubated for 30 minutes at room temperature with different concentrations of MCG analogs or equivalent volume of vehicle (DMSO). Cells were then incubated for an additional 1 h at room temperature with anti-HIV-1 Env monoclonal antibodies recognizing CD4-induced gp120 epitopes (17b, A32), CD4-binding site gp120 epitopes (VRC03, VRC01, F105, and b12), gp120 V3 glycans (19b, PGT126, PGT122, and 10.1074), gp120 outer domain (2G12), and gp120-gp41 interface (PGT151 and VRC34) epitopes. All ligands were diluted in blocking buffer. A horseradish peroxidase-conjugated antibody specific for the Fc region of human or mouse IgG (Pierce) was then incubated with the samples for 45 minutes at room temperature. For all conditions, cells were washed 5 times with blocking buffer and 5 times with washing buffer (1.8 mM CaCl2), 1 mM MgCl2, 25 mM Tris, pH 7.5 and 140 mM NaCl). HRP enzyme activity was determined after the addition of 20 μl per well of a 1:1 mix of Western Lightning oxidizing and luminol reagents (Perkin Elmer Life Sciences). Light emission was measured with an LB 941 TriStar luminometer (Berthold Technologies) and analysis with Graph Pad software.
The data of Table 2 is given as the fold over BNM-III-170 (5 μM) of Cell-Based ELISA with MCG Analogs (50 μM)—17b readout, 2G12 and DMSO normalized.
To identify molecules able to expose vulnerable Env epitopes, a cell-based ELISA (CBE) assay was adapted, capable of measuring conformational changes of membrane-bound trimeric Env as described in Veillette, 2014, J. Vis. Exp. doi:10.3791/51995:51995; Haim, 2011, PLoS Pathog 7:e1002101, into a high-throughput screening (HTS) platform (FIG. 10A). Briefly, the cytoplasmic-tail deleted HIV-1JR-FL Tier-2/3 Env was expressed on the surface of HOS cells in a 384-well-plate format. The cytoplasmic tail of Env was deleted to enhance Env expression at the cell surface and therefore enhance the sensitivity of the CBE assay. See, Veilette and Haim, 2009, PLoS Pathog 5:e100036. Small molecules or, as a positive control, soluble (sCD4) were added to expose the HIV-1JR-FL EnvΔCT epitope that can be recognized by the CD4i antibody 17b. See, Wyatt, 1995, J. Virol. 69:5723-5733; Rizzuto, 1998, Science 280:1949-1953.
17b binding was detected by a horseradish peroxidase-conjugated (HRP) second antibody, and HRP enzyme activity was measured by Western Lightning oxidizing and luminal reagents. 17b binding in the presence of sCD4 was set as the control (FIG. 10B, blue dots), small molecules that enhanced 17b binding above 25% of the one induced by sCD4 were retested in quadruplicate and only one molecule (UM0059920) was deemed a true positive (FIG. 10B, red dots). […]

Solubility in PBS = format: physicochemical; details: Yes/NO
[2] = test system: CH58TF infected primary CD4+ T-cells; test: Recognition of HIV-1 infected cells by 17b (flow cytometry cell-surface staining); format: cell-based; details: for fold induction at 50 µM: Human immunodeficiency virus 1, T-cell, read-out: Fold Over DMSO (17b, n = 1)
Description: (§1) Cell-surface staining of primary CD4+ T cells from healthy HIV uninfected individuals or CEM-NKr cells is performed, as described in Prevost, “Influence of the Envelope gp120 Phe 43 Cavity on HIV-1 Sensitivity to Antibody-Dependent Cell-Mediated Cytotoxicity Responses,” 2017, J. Virol 91; Richard, “CD4 mimetics sensitize HIV-1-infected cells to ADCC,” 2015, Proc. Natl. Acad. Sci. USA, 112:E2687-2694; Richard, “Small CD4 Mimetics Prevent HIV-1 Uninfected Bystander CD4+ T Cell Killing Mediated by Antibody-dependent Cell-mediated Cytotoxicity,” 2016, EBioMedicine 3:122-134; Veillette, “The HIV-1 gp120 CD4-Bound Conformation Is Preferentially Targeted by Antibody-Dependent Cellular Cytotoxicity-Mediating Antibodies in Sera from HIV-1-Infected Individuals,” 2015, J. Virol., 89:545-551; Veillette, “Interaction with cellular CD4 exposes HIV-1 envelope epitopes targeted by antibody-dependent cell-mediated cytotoxicity,” 2014, J. Virol., 88:2633-2644; Richard, “Uninfected Bystander Cells Impact the Measurement of HIV-Specific Antibody-Dependent Cellular Cytotoxicity Responses,” 2018, MBio. 9(2): e00358-18; Richard, “BST-2 Expression Modulates Small CD4-Mimetic Sensitization of HIV-1-Infected Cells to Antibody-Dependent Cellular Cytotoxicity,” 2017, J. Virol. 91(11):e00219-17. Binding of HIV-1 infected cells by HIV+ sera (1:1000 dilution) or anti-Env Abs (such as 17b) is performed […] in vitro infection at 37° C. in presence of different concentrations of the MCG analogs or with equivalent volume of vehicle (DMSO). Cells infected with HIV-1 primary isolates are stained intracellularly for HIV-1 p24 using the Cytofix/Cytoperm Fixation/Permeabilization Kit (BD Biosciences, Mississauga, ON, Canada) and then fluorescent anti-p24 mAb (PE-anti-p24, clone KC57; Beckman Coulter/Immunotech, Hialeah, FL) (1:100 final concentration). The percentage of infected cells (p24^+ or GFP+ cells) is determined by gating the living cell population based on the viability dye staining. Samples are analyzed on an LSRII cytometer (BD Biosciences, Mississauga, ON, Canada) and data analysis is performed using FlowJo vX0.7 (Tree Star, Ashland, OR, USA).
(§2) Briefly, Primary CD4 T cells isolated from PBMC were infected with HIV-1CH58TF for 48 hours. For cell surface staining, 5 μg/ml 17b (FIG. 15A) or 1:1000 diluted HIV+ plasma (n=15) (FIG. 15B) were used in the presence of the different MCG analogs (50 μM), (+)-BNM-III-170 or with an equivalent volume of vehicle (DMSO). An Alexa Fluor 647-conjugated anti-human IgG secondary Ab was then used for fluorescent labeling. For ADCC (FIG. 15C), infected cells were used as target cells in a FACS-based ADCC assay that measures the killing of infected (p24+ cells). See, Madani, 2016, J. Virol., 90:5031-5046. The assay determines susceptibility to ADCC mediated by a 1/1,000 dilution of plasma from 15 HIV-1-infected individuals in the presence of the different MCG analogs (50 μM), (+)-BNM-III-170 (50 μM) or with an equivalent volume of vehicle (DMSO). Correlation between cell-surface staining with HIV+ plasma and ADCC was calculated using the Spearman rank correlation (FIG. 15D).

[3] = test system: CH58TF infected primary CD4+ T-cells; test: HIV+ patient sera/plasma recognition of CH58TF infected primary CD4+ T-cells (flow cytometry cell-surface staining); format: cell-based, HIV-1; details: for fold induction at 50 µM: Human immunodeficiency virus 1, T-cell, read-out: Fold Over DMSO (patient sera, n = 3)
Description: as §1
HIV+ Patient Sera (n=3) Recognition of CH58TF Infected Primary CD4+ T-Cells
Staining with patient sera and 50 μM of compounds given as a fold change over DMSO (vehicle).
as §2

SMILES | Fold over BNM-III-170 - 17b binding (±0.05) [1] | Solubility (in PBS) (Solubility in PBS) | fold induction at 50 µM [2] | fold induction at 50 µM [3] | Fold Over DMSO (17b, n = 1) ([2]; 50 μM of compounds, 17b staining) | Fold Over DMSO (patient sera, n = 3) ([3]; 50 μM of compounds, staining with HIV+ patient sera, CH58TF infected primary CD4+ T-cells)
CS(=O)(=O)N1CCC[C@H](C(=O)Nc2ccc(Cl)c(Cl)c2)C1 [(S)-MCG-III-085-A03] | 0.19 fold | Yes | 3.34 | 1.46 |  | 
CS(=O)(=O)N1CCC[C@H](C(=O)Nc2ccc(Cl)c(Br)c2)C1 [(S)-MCG-III-085-A05] | 0.16 fold | Yes | 2.15 | 1.11 |  | 
CS(=O)(=O)N1CCC[C@H](C(=O)Nc2ccc(F)c(F)c2)C1 [(S)-MCG-III-085-A04] | 0.10 fold | Yes | 3 | 1.31 |  | 
CCS(=O)(=O)N1CCOC(C(=O)Nc2ccc(Cl)c(F)c2)C1 (stereo not shown) [MCG-III-211-A02] | 0.33 fold | Yes | 3.64 | 1.81 |  | 
Cn1cnc(S(=O)(=O)N2CCC(C(=O)Nc3ccc(Cl)c(F)c3)C2)c1 (stereo not shown) [MCG-III-157-A04] | 0.34 fold | Yes |  | 1.28 |  | 
CS(=O)(=O)N1CCNC(C(=O)Nc2ccc(Cl)c(F)c2)C1 (stereo not shown) [MCG-III-216-A02] | 0.10 fold | Yes | 1.3 | 1.03 |  | 
CCS(=O)(=O)N1CCNC(C(=O)Nc2ccc(Cl)c(F)c2)C1 (stereo not shown) [MCG-III-212-A02] | 0.36 fold | Yes | 3.95 | 1.85 |  | 
CC(C)(C)OC(=O)N1CCN(S(C)(=O)=O)CC1C(=O)Nc1ccc(Cl)c(F)c1 (stereo not shown) [MCG-III-212-A01] | 0.06 fold | Yes | 0.968 | 0.982 |  | 
CCS(=O)(=O)N1CC(C(=O)Nc2ccc(Cl)c(F)c2)Cc2ccccc21 (stereo not shown) [MCG-III-214-A02] |  | Yes** | 5.16 | 3.25 |  | 
CCS(=O)(=O)N1CCCC(NC(=O)c2ccc(Cl)c(F)c2)C1 (stereo not shown) [MCG-III-157-C02] | 0.07 fold | Yes |  | 1.05 |  | 
O=C(Nc1ccc(Cl)c(F)c1)C1CNCCO1 (stereo not shown) [MCG-III-196] |  | Yes |  |  | 2.595 fold | 1.499 fold
Cn1cnc(S(=O)(=O)N2CCCC(NC(=O)c3ccc(Cl)c(F)c3)C2)c1 (stereo not shown) [MCG-III-157-C04] | 0.04 fold | Yes |  | 0.897 |  | 
CCN1CC(C(=O)Nc2ccc(Cl)c(F)c2)Cc2ccccc21 (stereo not shown) [MCG-III-201] |  | Yes | 1.39 | 0.989 |  | 
CS(=O)(=O)N1CCCC(C(=O)Nc2ccc(Cl)c(F)c2)C1 (stereo not shown) [MCG-III-157-B01] | 0.42 fold | Yes |  | 1.48 |  | 
CS(=O)(=O)N1CCC(C(=O)Nc2ccc(Cl)c(F)c2)C1 (stereo not shown) [MCG-III-157-A01] | 0.36 fold | Yes |  | 1.85 |  | 
CCS(=O)(=O)N1CCC(C(=O)Nc2ccc(Cl)c(F)c2)C1 (stereo not shown) [MCG-III-157-A02] | 0.27 fold | Yes |  | 1.64 |  | 
O=C(Nc1ccc(Cl)c(F)c1)[C@H]1CCCN(S(=O)(=O)C(F)(F)F)C1 [(S)-MCG-III-132] | 0.27 fold | Yes |  | 1.58 |  | 
O=C(Nc1ccc(Cl)c(F)c1)C1CNc2ccccc2C1 (stereo not shown) [MCG-III-209] |  | Yes | 3.23 | 1.82 |  | 
CC(C)(C)OC(=O)N1CCN(S(=O)(=O)c2ccccc2)CC1C(=O)Nc1ccc(Cl)c(F)c1 (stereo not shown) [MCG-III-212-A03] | 0.06 fold |  | 1.1 | 1.24 |  | 

From patent publication US12286401B2, “Small molecules that sensitize HIV-1 infected cells to antibody dependent cellular cytotoxicity” (THE TRUSTEES OF THE UNIVERSITY OF PENNSYLVANIA, priority 2018, dated 2025)
